Counter-ions that a name gives are not always drawn.
Legend:
[1] = tested on: rat NET; test: Inhibition of [3H]nisoxetine binding to NET; conditions: Table 3; selectivity ratio of IC50 values
Method: (§1) Briefly, rat striatum was the source for DAT, and cerebral cortex for SERT and NET. […] Test compounds were dissolved in dimethyl sulfoxide (DMSO) and diluted out in 10% (v/v) DMSO. […] At lease five triplicate concentrations of each test compound were studied, spaced evenly around the IC50 value. For DAT uptake assays, uptake of 50 nM [^3H]DA into rat striatal synaptosomes was measured exactly as described by us previously. Briefly, rat striatal P2 membrane fractions were incubated with test compounds for 8 min followed by the additional presence of [^3H]DA for 4 min at 25?. […] Construction of inhibition curves and dissolvement of test compounds were as described above.

[2] = target: T1, SERT (Rattus norvegicus, UniProt P31652); test: Inhibition of [3H]5-HT uptake by SERT; type: biochemical; conditions: text summary of Table 4
T1 construct: from tissue

[3] = target: T2, NET (Rattus norvegicus, UniProt Q63380); test: Inhibition of [3H]NE uptake by NET; type: biochemical; conditions: text summary of Table 4
T2 construct: from tissue

[4] = target: T3, rat DAT (Rattus norvegicus, UniProt P23977); test: Inhibition of [3H]WIN 35,428 binding to DAT
T3 construct: rat striatum was the source for DAT, and cerebral cortex for SERT and NET; from tissue; host or cells: rat striatum (P2 membrane fractions / synaptosomes for uptake)
Method: as §1

[5] = target: T4, rat SERT (Rattus norvegicus, UniProt P31652); test: Inhibition of [3H]citalopram binding to SERT
T4 construct: rat striatum was the source for DAT, and cerebral cortex for SERT and NET; from tissue; host or cells: rat cerebral cortex
Method: as §1

[6] = target: T5, DAT (Rattus norvegicus, UniProt P23977); test: Inhibition of [3H]DA uptake by DAT into rat striatal synaptosomes; type: biochemical; conditions: DAT binding vs DA uptake
T5 construct: rat striatum was the source for DAT, and cerebral cortex for SERT and NET; from tissue; host or cells: rat striatum (P2 membrane fractions / synaptosomes for uptake)
Method: as §1

T2 sequence (Q63380 1-617): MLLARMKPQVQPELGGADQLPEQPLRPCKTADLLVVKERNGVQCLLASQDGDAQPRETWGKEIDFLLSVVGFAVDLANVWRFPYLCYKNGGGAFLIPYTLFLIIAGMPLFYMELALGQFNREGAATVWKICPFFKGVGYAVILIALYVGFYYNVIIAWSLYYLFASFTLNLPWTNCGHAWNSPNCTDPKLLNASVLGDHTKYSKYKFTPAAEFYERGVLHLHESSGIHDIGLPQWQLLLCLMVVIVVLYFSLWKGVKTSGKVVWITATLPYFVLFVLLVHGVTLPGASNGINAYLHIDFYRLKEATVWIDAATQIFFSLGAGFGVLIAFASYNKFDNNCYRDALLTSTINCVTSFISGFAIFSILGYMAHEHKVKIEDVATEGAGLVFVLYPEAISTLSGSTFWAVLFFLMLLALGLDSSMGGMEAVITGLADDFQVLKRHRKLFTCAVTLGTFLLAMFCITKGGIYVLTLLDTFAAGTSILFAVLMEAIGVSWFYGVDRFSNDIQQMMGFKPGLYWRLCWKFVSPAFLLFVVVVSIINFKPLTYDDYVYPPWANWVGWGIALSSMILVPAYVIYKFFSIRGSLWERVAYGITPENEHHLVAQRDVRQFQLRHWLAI
T1 sequence (P31652 whole entry): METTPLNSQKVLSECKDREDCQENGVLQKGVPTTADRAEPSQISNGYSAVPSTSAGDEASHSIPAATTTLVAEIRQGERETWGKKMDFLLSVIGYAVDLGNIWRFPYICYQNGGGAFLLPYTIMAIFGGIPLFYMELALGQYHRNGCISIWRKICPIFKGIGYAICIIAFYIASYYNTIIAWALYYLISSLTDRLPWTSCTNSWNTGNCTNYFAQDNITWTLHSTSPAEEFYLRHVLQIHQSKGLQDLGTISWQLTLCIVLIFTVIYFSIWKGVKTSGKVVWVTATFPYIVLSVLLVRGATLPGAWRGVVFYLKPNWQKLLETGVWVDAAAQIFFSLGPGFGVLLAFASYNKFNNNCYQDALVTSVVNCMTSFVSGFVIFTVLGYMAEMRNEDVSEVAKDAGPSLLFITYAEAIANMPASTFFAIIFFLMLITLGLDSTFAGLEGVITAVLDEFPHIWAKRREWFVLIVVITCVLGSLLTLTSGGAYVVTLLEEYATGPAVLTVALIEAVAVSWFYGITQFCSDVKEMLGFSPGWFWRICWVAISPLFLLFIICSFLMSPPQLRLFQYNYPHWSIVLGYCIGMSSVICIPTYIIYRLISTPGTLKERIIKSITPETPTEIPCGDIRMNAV
T3 sequence (P23977 whole entry): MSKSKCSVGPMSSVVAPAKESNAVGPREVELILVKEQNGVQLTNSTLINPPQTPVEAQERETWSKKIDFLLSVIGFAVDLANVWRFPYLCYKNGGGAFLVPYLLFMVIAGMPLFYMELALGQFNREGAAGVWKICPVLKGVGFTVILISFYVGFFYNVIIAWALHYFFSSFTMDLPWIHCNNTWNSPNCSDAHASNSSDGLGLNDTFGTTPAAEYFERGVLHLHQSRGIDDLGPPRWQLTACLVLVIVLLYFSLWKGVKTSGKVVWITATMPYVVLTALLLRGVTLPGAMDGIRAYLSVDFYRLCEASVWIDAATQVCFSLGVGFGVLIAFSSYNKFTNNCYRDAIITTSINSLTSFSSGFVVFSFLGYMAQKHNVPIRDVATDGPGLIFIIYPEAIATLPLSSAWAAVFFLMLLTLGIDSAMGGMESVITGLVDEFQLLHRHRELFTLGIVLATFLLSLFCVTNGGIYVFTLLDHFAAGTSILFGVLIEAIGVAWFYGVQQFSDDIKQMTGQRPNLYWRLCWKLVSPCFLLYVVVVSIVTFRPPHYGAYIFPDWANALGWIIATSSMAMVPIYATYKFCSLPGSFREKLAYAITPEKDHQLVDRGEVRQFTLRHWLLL
T4 sequence (P31652 whole entry): as the sequence (P31652 whole entry) above
T5 sequence (P23977 whole entry): as the sequence (P23977 whole entry) above

Compound	NET binding/DAT binding [1]	Blockade of NET, in words [3]	also measured
Fc1ccc(CN[C@H]2CC[C@@H](C(c3ccccc3)c3ccccc3)OC2)cc1 (relative stereo) [Compound 16b, Cis-(6-benzhydryl-tetrahydropyran-3-yl)-(4-fluoro-benzyl)-amine]	1.4	–	–
COc1ccc(CN[C@@H]2CO[C@H](C(c3ccccc3)c3ccccc3)C[C@H]2O)c(OC)c1 [(−)-29e, (2S,4R,5R)-2-benzhydryl-5-(2,4-dimethoxy-benzylamino)-tetrahydropyran-4-ol]	–	potent blockers	Blockade of SERT, in words [2]: potent blockers
COc1cc(CN[C@@H]2CO[C@H](C(c3ccccc3)c3ccccc3)C[C@H]2O)cc(OC)c1 [(−)-29f, (2S,4R,5R)-2-benzhydryl-5-(3,5-dimethoxy-benzylamino)-tetrahydropyran-4-ol]	–	potent blockers	Blockade of SERT, in words [2]: potent blockers
Fc1ccc(CN[C@H]2CCO[C@@H](C(c3ccccc3)c3ccccc3)C2)cc1 (relative stereo) [Compound 7a, cis-(2-benzhydryl-tetrahydropyran-4-yl)-(4-fluorobenzyl)-amine]	3.9	–	–
O[C@@H]1CO[C@H](C(c2ccccc2)c2ccccc2)C[C@H]1NCc1ccccc1 (as salt: oxalate) [(−)-29h, (3S,4R,6S)-6-benzhydryl-4-benzylamino-tetrahydropyran-3-ol]	–	–	melting point: 259 to 260 °C
Oc1ccc(CN[C@H]2CC[C@@H](C(c3ccccc3)c3ccccc3)OC2)cc1 [(−)-37a, cis-(3S,6S)-(6-benzhydryl-tetrahydropyran-3-yl)-(4-hydroxy-benzyl)-amine]	–	potent blockers	Blockade of SERT, in words [2]: potent blockers
Oc1ccc(CN[C@H]2CC[C@@H](C(c3ccccc3)c3ccccc3)OC2)cc1 (relative stereo) (as salt: oxalate) [Compound 16h, Cis-(6-benzhydryl-tetrahydropyran-3-yl)-(4-hydroxy-benzyl)-amine]	–	–	melting point: 136 to 138 °C
O[C@@H]1C[C@@H](C(c2ccccc2)c2ccccc2)OC[C@H]1NCc1ccc(F)cc1 [(−)-29b, (2S,4R,5R)-2-benzhydryl-5-(4-fluoro-benzylamino)-tetrahydro-pyran-4-ol]	–	selective blockers for NET	–
c1ccc(CN[C@H]2CC[C@@H](C(c3ccccc3)c3ccccc3)OC2)cc1 (relative stereo) [Compound 16k, Cis-(6-benzhydryl-tetrahydropyran-3-yl)-benzyl-amine]	0.90	–	–
c1ccc(C(c2ccccc2)C2CCC(NCc3c[nH]c4ccccc34)CO2)cc1 (stereo not drawn) [Compound 16f, Cis-(6-benzhydryl-tetrahydropyran-3-yl)-(3-indole-methyl)-amine]	2.3	–	–
Ic1ccc(CN[C@H]2CC[C@@H](C(c3ccccc3)c3ccccc3)OC2)cc1 (relative stereo) [Compound 16m, Cis-(6-benzhydryl-tetrahydropyran-3-yl)-(4-iodo-benzyl)-amine]	0.73	–	–
Oc1ccc(CN[C@H]2CO[C@@H](C(c3ccccc3)c3ccccc3)C[C@@H]2O)cc1 [(+)-32a, (2R,4S,5S)-2-benzhydryl-5-(4-hydroxy-benzylamino)-tetrahydro-pyran-4-ol]	–	selective blockers for NET	–
c1ccc(C(c2ccccc2)C2CCC(NCc3cc4ccccc4[nH]3)CO2)cc1 (stereo not drawn) [Compound 16g, Cis-(6-benzhydryl-tetrahydropyran-3-yl)-(2-indole-methyl)-amine]	1.8	–	Fold more active at DAT compared to 16f ([4]; DAT binding, 227 vs. 794 nM): 3.5 fold
O[C@@H]1C[C@@H](C(c2ccccc2)c2ccccc2)OC[C@H]1NCc1ccccc1 [(−)-29d, (2S,4R,5R)-2-benzhydryl-5-benzylamino-tetrahydro-pyran-4-ol]	–	selective blockers for NET	–
O[C@@H]1CO[C@@H](C(c2ccccc2)c2ccccc2)C[C@@H]1NCc1ccccc1 (as salt: oxalate) [(+)-29h, (3S,4S,6R)-6-benzhydryl-4-benzylamino-tetrahydropyran-3-ol]	–	–	melting point: 259 to 260 °C
Fc1ccc(CN[C@H]2CC[C@@H](C(c3ccccc3)c3ccccc3)OC2)cc1F (relative stereo) [Compound 16j, Cis-(6-benzhydryl-tetrahydropyran-3-yl)-(3,4-difluoro-benzyl)-amine]	1.9	–	–
COc1ccc(CN[C@H]2C[C@H](C(c3ccccc3)c3ccccc3)OC[C@H]2O)cc1 (as salt: oxalate) [(+)-29g, (3S,4S,6R)-6-benzhydryl-4-(4-methoxy-benzylamino)-tetrahydro-pyran-3-ol]	–	–	melting point: 235 to 237 °C
O[C@@H]1C[C@@H](C(c2ccccc2)c2ccccc2)OC[C@H]1NCc1ccc2[nH]ccc2c1 [(−)-32b, (2S,4R,5R)-2-benzhydryl-5-[(1H-indol-5-ylmethyl)-amino]-tetrahydropyran-4-ol]	–	potent blockers	Blockade of SERT, in words [2]: potent blockers
c1ccc(CN[C@H]2CC[C@@H](C(c3ccccc3)c3ccccc3)NC2)cc1 [Compound 1a, reference compound]	–	–	IC50 [5]: 2.13 ± 0.11 µM; IC50 [4]: 0.114 µM
c1ccc(C(c2ccccc2)[C@@H]2CC[C@H](NCc3ccc4[nH]ccc4c3)CO2)cc1 (relative stereo) [Compound 16n, Cis-(6-benzhydryl-tetrahydropyran-3-yl)-(1H-iodo-5-ylmethyl)-amine]	0.09	–	–
Oc1ccc(CN[C@@H]2CC[C@H](C(c3ccccc3)c3ccccc3)OC2)cc1 [(+)-37a, cis-(3R,6R)-(6-benzhydryl-tetrahydropyran-3-yl)-(4-hydroxy-benzyl)-amine]	–	selective blockers for NET	–
N[C@H]1CC[C@@H](C(c2ccccc2)c2ccccc2)OC1 (relative stereo) [Compound 15, Cis-(6-benzhydryl-tetrahydropyran-3-yl)-amine]	–	–	Activity at the DAT, in words [4]: little or no activity at the DAT
O=[N+]([O-])c1ccc(CN[C@H]2CC[C@@H](C(c3ccccc3)c3ccccc3)OC2)cc1 (relative stereo) [Compound 16d, Cis-(6-benzhydryl-tetrahydropyran-3-yl)-(4-nitro-benzyl)-amine]	–	–	Potency in inhibiting binding versus uptake, in words [6]: three fold higher potency in inhibiting binding than uptake
Oc1ccc(CN[C@@H]2CO[C@H](C(c3ccccc3)c3ccccc3)C[C@H]2O)cc1 [(−)-32a, (2S,4R,5R)-2-benzhydryl-5-(4-hydroxy-benzylamino)-tetrahydropyran-4-ol]	–	selective blockers for NET	–
Clc1ccc(CN[C@H]2CC[C@@H](C(c3ccccc3)c3ccccc3)OC2)cc1Cl (relative stereo) [Compound 16i, Cis-(6-benzhydryl-tetrahydropyran-3-yl)-(3,4-dichloro-benzyl)-amine]	0.36	–	–
COc1ccc(CN[C@@H]2CO[C@H](C(c3ccccc3)c3ccccc3)C[C@H]2O)cc1 [(−)-29a, (2S,4R,5R)-2-benzhydryl-5-(4-methoxy-benzylamino)-tetrahydropyran-4-ol]	–	potent blockers	Blockade of SERT, in words [2]: potent blockers
